Where a name gives a salt, the structure may show the parent alone. Read-outs that look alike come from different tables or passages of the source.
Biological target: Btk enzyme (His-Btk) (Homo sapiens (Human), UniProt Q06187)
Assay: Btk enzyme activity, IMAP fluorescence polarization assay (Assay Method A)
[1] = read-out: EC50 Btk activity values - Assay Method A, IMAP-FP, 60 min pre-incubation, 5 μM ATP, class 100-1000 is given as ≧100 nM-<1 μM

Sequence of Btk enzyme (His-Btk) (Q06187 whole entry): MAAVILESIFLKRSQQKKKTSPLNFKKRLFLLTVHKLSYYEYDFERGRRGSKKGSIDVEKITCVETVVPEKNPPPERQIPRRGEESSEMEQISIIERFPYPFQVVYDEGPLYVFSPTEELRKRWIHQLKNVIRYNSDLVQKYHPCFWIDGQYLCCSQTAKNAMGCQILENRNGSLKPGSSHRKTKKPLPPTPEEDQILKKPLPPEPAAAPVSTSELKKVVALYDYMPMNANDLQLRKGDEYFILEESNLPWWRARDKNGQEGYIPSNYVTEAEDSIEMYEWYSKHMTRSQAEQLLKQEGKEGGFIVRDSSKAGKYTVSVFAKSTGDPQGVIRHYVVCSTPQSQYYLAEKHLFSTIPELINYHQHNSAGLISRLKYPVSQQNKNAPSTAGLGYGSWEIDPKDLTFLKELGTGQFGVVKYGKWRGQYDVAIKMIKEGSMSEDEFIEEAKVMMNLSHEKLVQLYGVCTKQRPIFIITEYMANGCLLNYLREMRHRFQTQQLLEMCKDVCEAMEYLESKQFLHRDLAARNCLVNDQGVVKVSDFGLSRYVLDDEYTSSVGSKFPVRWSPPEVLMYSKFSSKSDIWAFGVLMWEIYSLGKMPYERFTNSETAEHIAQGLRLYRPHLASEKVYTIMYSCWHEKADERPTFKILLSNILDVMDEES

EC50 [nM] | EC50 [1] [nM] | SMILES | further results
10 to 100 |  | Nc1nccn2c([C@@H]3CCCN(C=O)C3)nc(-c3ccc(C(=O)Nc4ccccn4)cc3)c12 [Example 95, (R)-4-(8-amino-3-(1-formylpiperidin-3-yl)imidazo[1,5-a]pyrazin-1-yl)-N-(pyridin-2-yl)benzamide] | 
< 10 |  | CCC(=O)N1CCC[C@@H](c2nc(-c3ccc(C(=O)Nc4cc(C#N)ccn4)cc3)c3c(N)nccn23)C1 [Example 96, (R)-4-(8-amino-3-(1-propionylpiperidin-3-yl)imidazo[1,5-a]pyrazin-1-yl)-N-(4-cyanopyridin-2-yl)benzamide] | 
< 10 |  | COCCC(=O)N1CCC[C@@H](c2nc(-c3ccc(C(=O)Nc4cc(C#N)ccn4)cc3)c3c(N)nccn23)C1 [Example 97, (R)-4-(8-amino-3-(1-(3-methoxypropanoyl)piperidin-3-yl)imidazo[1,5-a]pyrazin-1-yl)-N-(4-cyanopyridin-2-yl)benzamide] | 
< 10 |  | N#Cc1ccnc(NC(=O)c2ccc(-c3nc([C@@H]4CCCN(C(=O)C5CC5)C4)n4ccnc(N)c34)cc2)c1 [Example 98, (R)-4-(8-amino-3-(1-(cyclopropanecarbonyl)piperidin-3-yl)imidazo[1,5-a]pyrazin-1 yl)-N-(4-cyanopyridin-2-yl)benzamide] | 
< 10 |  | CC1(C(=O)N2CCC[C@@H](c3nc(-c4ccc(C(=O)Nc5cc(C#N)ccn5)cc4)c4c(N)nccn34)C2)COC1 [Example 99, (R)-4-(8-amino-3-(1-(3-methyloxetane-3 carbonyl)piperidin-3-yl)imidazo[1,5-a]pyrazin-1-yl)-N-(4-cyanopyridin-2-yl)benzamide] | 
 | < 10 | CC(C)C(=O)N1CCC[C@@H](c2nc(-c3ccc(C(=O)Nc4cc(C#N)ccn4)cc3)c3c(N)nccn23)C1 [Example 100, (R)-4-(8-amino-3-(1-isobutyrylpiperidin-3 yl)imidazo[1,5-a]pyrazin-1-yl)-N-(4-cyanopyridin-2-yl)benzamide] | 
 | < 10 | CCNC(=O)N1CCC[C@@H](c2nc(-c3ccc(C(=O)Nc4cc(C#N)ccn4)cc3)c3c(N)nccn23)C1 [Example 101, (R)-3-(8-amino-1-(4-(4-cyanopyridin-2-ylcarbamoyl)phenyl)imidazo [1,5-a]pyrazin-3-yl)-N-ethylpiperidine-1-carboxamide] | 
< 10 |  | Nc1nccn2c([C@@H]3CCCN(C(=O)C4CC4)C3)nc(-c3ccc(C(=O)Nc4cc(C(F)(F)F)ccn4)cc3)c12 [Example 103, (R)-4-(8-amino-3-(1-(cyclopropanecarbonyl)piperidin-3-yl)imidazo[1,5-a]pyrazin-1-(trifluoromethyl)pyridin-2-yl)benzamide] | 
 | < 10 | CC(C)C(=O)N1CCC[C@@H](c2nc(-c3ccc(C(=O)Nc4cc(C(F)(F)F)ccn4)cc3)c3c(N)nccn23)C1 [Example 104, (R)-4-(8-amino-3-(1-isobutyrylpiperidin-3-yl)imidazo[1,5-a]pyrazin-1-yl)-N-(4-(trifluoromethyl)pyridin-2-yl)benzamide] | 
 | < 10 | CC(CO)(CO)C(=O)N1CCC[C@@H](c2nc(-c3ccc(C(=O)Nc4cc(C(F)(F)F)ccn4)cc3)c3c(N)nccn23)C1 [Example 105, (R)-4-(8-amino-3-(1-(3-hydroxy-2-(hydroxymethyl)-2-methylpropanoyl)piperidin-3 yl)imidazo[1,5-a]pyrazin-1-yl)-N-(4-(trifluoromethyl)pyridin-2-yl)benzamide] | 
 | < 10 | Nc1nccn2c([C@@H]3CCCNC3)nc(-c3ccc(C(=O)Nc4cc(C(F)(F)F)ccn4)cc3)c12 [Example 106, (R)-4-(8-amino-3-(piperidin-3-yl)imidazo[1,5-a]pyrazin-1-yl)-N-(4-(trifluoromethyl)pyridin-2-yl)benzamide] | 
 |  | Nc1nccn2c([C@@H]3CCCN(C(=O)OCc4ccccc4)C3)nc(-c3ccc(C(=O)Nc4cc(C(F)(F)F)ccn4)cc3)c12 [Example 107, (R)-benzyl 3-(8-amino-1-(4-(4-(trifluoromethyl)pyridin-2-ylcarbamoyl)phenyl)imidazo[1,5-a]pyrazin-3-yl)piperidine-1-carboxylate] | EC50 (read-out: EC50 Btk activity values - Assay Method A): < 10 nM
10 to 100 |  | CC(C)(C#N)C(=O)N1CCC[C@@H](c2nc(-c3ccc(C(=O)Nc4ccccn4)cc3)c3c(N)nccn23)C1 [Example 108, (R)-4-(8-amino-3-(1-(2-cyano-2-methylpropanoyl)piperidin-3-yl)imidazo[1,5-a]pyrazin-1-yl)-N-(pyridin-2-yl)benzamide] | 
 | < 10 | Nc1nccn2c([C@@H]3CCCN(C(=O)C4CC(F)(F)C4)C3)nc(-c3ccc(C(=O)Nc4cc(C5CC5)ccn4)cc3)c12 [Example 109, (R)-4-(8-amino-3-(1-(3,3-difluorocyclobutanecarbonyl)piperidin-3-yl)imidazo[1,5-a]pyrazin-1-yl)-N-(4-cyclopropylpyridin-2-yl)benzamide] | 
 | < 10 | Nc1nccn2c([C@@H]3CCCN(C(=O)CN4CCOC4=O)C3)nc(-c3ccc(C(=O)Nc4cc(C5CC5)ccn4)cc3)c12 [Example 110, (R)-4-(8-amino-3-(1-(2-(2-oxooxazolidin-3-yl)acetyl)piperidin-3-yl)imidazo[1,5-a]pyrazin-1-yl)-N-(4-cyclopropylpyridin-2-yl)benzamide] | 
10 to 100 |  | CN(C)C(=O)C(=O)N1CCC[C@@H](c2nc(-c3ccc(C(=O)Nc4cc(C5CC5)ccn4)cc3)c3c(N)nccn23)C1 [Example 111, (R)-4-(8-amino-3-(1-(2-(dimethylamino)-2-oxoacetyl)piperidin-3-yl)imidazo[1,5-a]pyrazin-1-yl)-N-(4-cyclopropylpyridin-2-yl)benzamide] | 
10 to 100 |  | CC(C)CNC(=O)C(=O)N1CCC[C@@H](c2nc(-c3ccc(C(=O)Nc4cc(C5CC5)ccn4)cc3)c3c(N)nccn23)C1 [Example 112, (R)-4-(8-amino-3-(1-(2-(isobutylamino)-2-oxoacetyl)piperidin-3-yl)imidazo[1,5-a]pyrazin-1-yl)-N-(4-cyclopropylpyridin-2-yl)benzamide] | 
10 to 100 |  | Cc1ccc(NC(=O)C(=O)N2CCC[C@@H](c3nc(-c4ccc(C(=O)Nc5cc(C6CC6)ccn5)cc4)c4c(N)nccn34)C2)cc1C [Example 113, (R)-4-(8-amino-3-(1-(2-(3,4-dimethylphenylamino)-2-oxoacetyl)piperidin-3 yl)imidazo[1,5-a]pyrazin-1-yl)-N-(4-cyclopropylpyridin-2-yl)benzamide] | 
 | < 10 | CCC(=O)C(=O)N1CCC[C@@H](c2nc(-c3ccc(C(=O)Nc4cc(C5CC5)ccn4)cc3)c3c(N)nccn23)C1 [Example 114, (R)-4-(8-amino-3-(1-(2-oxobutanoyl)piperidin-3 yl)imidazo[1,5-a]pyrazin-1-yl)-N-(4-cyclopropylpyridin-2-yl)benzamide] | 
100 to 1000 |  | Nc1nccn2c([C@@H]3CCCN(C(=O)C(=O)C(F)(F)F)C3)nc(-c3ccc(C(=O)Nc4cc(C5CC5)ccn4)cc3)c12 [Example 115, (R)-4-(8-amino-3-(1-(3,3,3-trifluoro-2-oxopropanoyl)piperidin-3-yl)imidazo[1,5-a]pyrazin-1-yl)-N-(4-cyclopropylpyridin-2-yl)benzamide] | 
 | < 10 | Cc1nnc(C(=O)N2CCC[C@@H](c3nc(-c4ccc(C(=O)Nc5cc(C6CC6)ccn5)cc4)c4c(N)nccn34)C2)o1 [Example 116, (R)-4-(8-amino-3-(1-(5-methyl-1,3,4-oxadiazole-2-carbonyl)piperidin-3-yl)imidazo[1,5-a]pyrazin-1-yl)-N-(4-cyclopropylpyridin-2-yl)benzamide] | 
 | < 10 | N#Cc1ccc(C(=O)N2CCC[C@@H](c3nc(-c4ccc(C(=O)Nc5cc(C6CC6)ccn5)cc4)c4c(N)nccn34)C2)cn1 [Example 117, (R)-4-(8-amino-3-(1-(6-cyanonicotinoyl)piperidin-3-yl)imidazo[1,5-a]pyrazin-1-yl)-N-(4-cyclopropylpyridin-2-yl)benzamide .] | 
 | < 10 | N#Cc1csc(C(=O)N2CCC[C@@H](c3nc(-c4ccc(C(=O)Nc5cc(C6CC6)ccn5)cc4)c4c(N)nccn34)C2)c1 [Example 118, (R)-4-(8-amino-3-(1-(4-cyanothiophene-2-carbonyl)piperidin-3 yl)imidazo[1,5-a]pyrazin-1-yl)-N-(4-cyclopropylpyridin-2-yl)benzamide] | 
 | < 10 | Nc1nccn2c([C@@H]3CCCN(C(=O)Nc4ccccc4Cl)C3)nc(-c3ccc(C(=O)Nc4cc(C5CC5)ccn4)cc3)c12 [Example 120, (R)-3-(8-amino-1-(4-(4-cyclopropylpyridin-2-ylcarbamoyl)phenyl)imidazo [1,5-a]pyrazin-3-yl)-N-(2-chlorophenyl)piperidine-1-carboxamide] | 
10 to 100 |  | Nc1nccn2c([C@@H]3CCCN(C(=O)NC45CC6CC(CC(C6)C4)C5)C3)nc(-c3ccc(C(=O)Nc4cc(C5CC5)ccn4)cc3)c12 [Example 121] | 
10 to 100 |  | Nc1nccn2c([C@@H]3CCCN(C(=O)C(=O)c4ccco4)C3)nc(-c3ccc(C(=O)Nc4cc(C5CC5)ccn4)cc3)c12 [Example 123, (R)-4-(8-amino-3-(1-(2-(furan-2-yl)-2-oxoacetyl)piperidin-3-yl)imidazo[1,5-a]pyrazin-1-yl)-N-(4-cyclopropylpyridin-2-yl)benzamide] | 
100 to 1000 |  | CN(C)CCCC(=O)N1CC[C@@H](c2nc(-c3ccc(C(=O)Nc4ccccn4)cc3)c3c(N)nccn23)C1 [Example 124, (R)-4-(8-amino-3-(1-(4-(dimethylamino)butanoyl)pyrrolidin-3-yl)imidazo[1,5-a]pyrazin-1-yl)-N-(pyridin-2-yl)benzamide] | 
100 to 1000 |  | COCCC(=O)N1CC[C@@H](c2nc(-c3ccc(C(=O)Nc4ccccn4)cc3)c3c(N)nccn23)C1 [Example 125, (R)-4-(8-amino-3-(1-(3-methoxypropanoyl)pyrrolidin-3-yl)imidazo[1,5-a]pyrazin-1-yl)-N-(pyridin-2-yl)benzamide, TFA salt] | 
100 to 1000 |  | CC1(C(=O)N2CC[C@@H](c3nc(-c4ccc(C(=O)Nc5ccccn5)cc4)c4c(N)nccn34)C2)COC1 [Example 126, (R)-4-(8-amino-3-(1-(3-methyloxetane-3-carbonyl)pyrrolidin-3-yl)imidazo[1,5-a]pyrazin-1-yl)-N-(pyridin-2-yl)benzamide, TFA salt] | 
